Patent US10555909B2, “Microencapsulation of B-alanine” (INNOBIO CORPORATION LIMITED, priority 2015, dated 2020)
“And” between values parts separate entries of the source, which are not always exact repeats. Identical values can stand only once.

Tests used:
[1] = Size distribution of β-alanine before and after sustained-release microencapsulation; format: physicochemical
[2] = Tingling sensation evaluation after oral administration; format: in vivo
Protocol: The evaluation method of the tingling sensation in the present invention is that: a subject respectively administrates unsustained-release microencapsulated material containing a certain amount of β-alanine and sustained-release microencapsulated β-alanine. The time, intensity and duration of having the abnormal sensation are recorded.
The tingling sensation after oral administration of the β-alanine products A and D in Table 1 was evaluated according to a tingling sensation evaluation method, and an administration dosage, based on the β-alanine, is 22.8 mg/Kg (body weight).
In the tingling evaluation experiment in Table 5, the dosage of the subject was 45.7 mg/kg (body weight).

[3] = Release rate experiment, USP <711> Dissolution, Apparatus 2, 50 rpm, delayed-release method B; format: physicochemical
Protocol: Regarding to the measurement to the release rate in the present invention, the release rate experiment in 0.1N hydrochloric acid solution and pH6.8 phosphate buffer is conducted referring to USP<711>DISSOLUTIO and using Apparatus 2 with a rotate speed of 50 rpm by DELAYED-RELEASE DOSAGE FORMS method B.

Dissolution in water (in words): easy to be dissolved in water
Size distribution 300-450 μm ([1]; fraction 300-450 μm): 0%
Size distribution 450-900 μm ([1]; fraction 450-900 μm): 43.7%
Size distribution 900-1000 μm ([1]; fraction 900-1000 μm): 56.3%
Administration evaluation: Intensity ([2]; 22.8 mg/Kg body weight based on β-alanine, one value per subject, 0 no sensation, 1-5 acceptable, 6-10 unacceptable): 6 (2×) and 7
Duration of the abnormal sensation (lasting for) ([2]; 22.8 mg/Kg, per subject): 45 min and lasting for 30 min. and 1 h
Release in 0.1N hydrochloric acid solution (in words) ([3]; 0.1N hydrochloric acid solution): quickly and completely released
Release in pH6.8 phosphate buffer (in words) ([3]; pH6.8 phosphate buffer): quickly and completely released
SMILES: NCCC(=O)O [Product A, β-alanine]
Time of having the abnormal sensation (onset) ([2]; 22.8 mg/Kg, per subject): 15 min and sensation in the hands, face and ears in 10 min, and 25 min
